Like-named read-outs stand apart in the source and are kept apart here.
Legend:
[1] = test system: luminal, basal, claudin-low and ERBB2AMP breast cancer cell lines; experiment: Associations of clinically relevant subtypes and response (non-parametric ANOVA or t-test on GI50 ranks); type: cell-based, human; conditions: Table 6; most sensitive subtype, FDR p<0.20
Summary of the method: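 Significance was set at FDR p<0.20 after combining p-values across three test sets. Subtype–response associations came from rank-based non-parametric ANOVA or t-tests on GI50. For three-class comparisons, post-hoc tests of each group against the rest identified the most sensitive group, with FDR correction.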

[2] = test system: panel of 55 breast cancer cell lines; experiment: Cell growth inhibition assay (Cell Titer Glo, 72 h, 9 doses; GI50, TGI, LC50); type: cell-based, human; conditions: Homo sapiens, read-out: GI50 (converted)
[3] = 600MPE cell line, censored GI50 values
[4] = AU565, AU565 cell line, censored GI50 values
[5] = BT-474, BT474 cell line, censored GI50 values
[6] = BT-483, BT483 cell line, censored GI50 values
[7] = CAMA-1, CAMA1 cell line, censored GI50 values
[8] = HCC38, HCC38 cell line, censored GI50 values
[9] = HCC70, HCC70 cell line, censored GI50 values
[10] = HCC1143, HCC1143 cell line, censored GI50 values
[11] = HCC1187, HCC1187 cell line, censored GI50 values
[12] = HCC1419, HCC1419 cell line, censored GI50 values
[13] = HCC1428, HCC1428 cell line, censored GI50 values
[14] = HCC1500, HCC1500 cell line, censored GI50 values
[15] = HCC1806, HCC1806 cell line, censored GI50 values
[16] = HCC1937, HCC1937 cell line, censored GI50 values
[17] = HCC1954, HCC1954 cell line, censored GI50 values
[18] = HCC2185 cell line, censored GI50 values
[19] = HCC3153 cell line, censored GI50 values
[20] = MCF7, MCF7 cell line, censored GI50 values
[21] = MDA-MB-134-VI, MDAMB134VI cell line, censored GI50 values
[22] = MDA-MB-175-VII, MDAMB175VII cell line, censored GI50 values
[23] = MDA-MB-361, MDAMB361 cell line, censored GI50 values
[24] = MDA-MB-415, MDAMB415 cell line, censored GI50 values
[25] = MDA-MB-436, MDAMB436 cell line, censored GI50 values
[26] = MDA-MB-453, MDAMB453 cell line, censored GI50 values
[27] = MDA-MB-468, MDAMB468 cell line, censored GI50 values
[28] = SUM149PT, SUM149PT cell line, censored GI50 values
[29] = SUM1315MO2, SUM1315MO2 cell line, censored GI50 values
[30] = SUM-159-PT, SUM159PT cell line, censored GI50 values

CCNCCCNC/C=C\CNCCCNCC [CGC-11047]
Subtype specificity [1]: Basal | GI50 [2, 3]: 468 µM | GI50 [2, 4]: 288 µM | GI50 ([2]; AU565, cell line AU565): 288 µM | GI50 [2, 5]: 269 µM | GI50 ([2]; BT-474, cell line BT474): 269 µM | GI50 [2, 6]: 589 µM | GI50 ([2]; BT-483, cell line BT483): 589 µM | GI50 ([2]; BT-549, BT549 cell line, censored GI50 values): 29.5 µM | GI50 ([2]; BT-549, cell line BT549): 29.5 µM | GI50 [2, 7]: 1260 µM | GI50 ([2]; CAMA-1, cell line CAMA1): 1260 µM | GI50 [2, 8]: 11.7 µM | GI50 ([2]; HCC38, cell line HCC38): 11.7 µM | GI50 [2, 9]: 2.09 µM | GI50 ([2]; HCC70, cell line HCC70): 2.09 µM | GI50 ([2]; HCC202, HCC202 cell line, censored GI50 values): 14.5 µM | GI50 ([2]; HCC202, cell line HCC202): 14.5 µM | GI50 [2, 10]: 112 µM | GI50 ([2]; HCC1143, cell line HCC1143): 112 µM | GI50 [2, 11]: 1550 µM | GI50 ([2]; HCC1187, cell line HCC1187): 1550 µM | GI50 ([2]; HCC1395, HCC1395 cell line, censored GI50 values): 87.1 µM | GI50 ([2]; HCC1395, cell line HCC1395): 87.1 µM | GI50 [2, 12]: 14.1 µM | GI50 ([2]; HCC1419, cell line HCC1419): 14.1 µM | GI50 [2, 13]: 204 µM | GI50 ([2]; HCC1428, cell line HCC1428): 204 µM | GI50 [2, 14]: 63.1 µM | GI50 ([2]; HCC1500, cell line HCC1500): 63.1 µM | GI50 [2, 15]: 74.1 µM | GI50 ([2]; HCC1806, cell line HCC1806): 74.1 µM | GI50 [2, 16]: 6.92 µM | GI50 ([2]; HCC1937, cell line HCC1937): 6.92 µM | GI50 [2, 17]: 0.692 µM | GI50 ([2]; HCC1954, cell line HCC1954): 0.692 µM | GI50 [2, 18]: 407 µM | GI50 [2, 19]: 5.75 µM | GI50 ([2]; LY2 cell line, censored GI50 values): 1510 µM | GI50 [2, 20]: 85.1 µM | GI50 ([2]; MCF7, cell line MCF7): 85.1 µM | GI50 [2, 21]: 1070 µM | GI50 ([2]; MDA-MB-157, MDAMB157 cell line, censored GI50 values): 1020 µM | GI50 ([2]; MDA-MB-157, cell line MDAMB157): 1020 µM | GI50 [2, 22]: 617 µM | GI50 ([2]; MDA-MB-231, MDAMB231 cell line, censored GI50 values): 2510 µM | GI50 ([2]; MDA-MB-231, cell line MDAMB231): 2510 µM | GI50 [2, 23]: 708 µM | GI50 ([2]; MDA-MB-361, cell line MDAMB361): 708 µM | GI50 [2, 24]: 75.9 µM | GI50 ([2]; MDA-MB-415, cell line MDAMB415): 75.9 µM | GI50 [2, 25]: 380 µM | GI50 ([2]; MDA-MB-436, cell line MDAMB436): 380 µM | GI50 [2, 26]: 501 µM | GI50 ([2]; MDA-MB-453, cell line MDAMB453): 501 µM | GI50 [2, 27]: 0.891 µM | GI50 ([2]; MDA-MB-468, cell line MDAMB468): 0.891 µM | GI50 ([2]; SK-BR-3, cell line SKBR3): 5010 µM | GI50 ([2]; SUM52PE, cell line SUM52PE): 3.55 µM | GI50 [2, 28]: 28.8 µM | GI50 ([2]; SUM149PT, cell line SUM149PT): 28.8 µM | GI50 ([2]; SUM185PE, cell line SUM185PE): 501 µM | GI50 [2, 29]: 708 µM | GI50 [2, 30]: 107 µM | GI50 ([2]; SUM-159-PT, cell line SUM159PT): 107 µM | GI50 ([2]; T47D, cell line T47D): 9.33 µM | GI50 ([2]; UACC-812, cell line UACC812): 339 µM | GI50 ([2]; UACC-893, cell line UACC893): 2090 µM | GI50 ([2]; ZR-75-1, cell line ZR751): 501 µM | GI50 ([2]; ZR-75-30, cell line ZR7530): 5010 µM | GI50 ([2]; ZR-75B, cell line ZR75B): 562 µM | GI50 ([2]; cell line 600MPE): 468 µM | GI50 ([2]; cell line HCC2185): 407 µM | GI50 ([2]; cell line HCC3153): 5.75 µM | GI50 ([2]; cell line LY2): 1510 µM | GI50 ([2]; cell line MDAMB134V): 1070 µM | GI50 ([2]; cell line MDAMB175V): 617 µM | GI50 ([2]; cell line SUM1315MO): 708 µM

Cc1[nH]c2ccccc2c1CCNCc1ccc(/C=C/C(=O)NO)cc1 [LBH589]
Subtype specificity [1]: Luminal | GI50 [2, 3]: 0.186 µM | GI50 [2, 4]: 0.105 µM | GI50 ([2]; AU565, cell line AU565): 0.105 µM | GI50 ([2]; BT-20, BT20 cell line, censored GI50 values): 0.389 µM | GI50 ([2]; BT-20, cell line BT20): 0.389 µM | GI50 [2, 5]: 0.0347 µM | GI50 ([2]; BT-474, cell line BT474): 0.0347 µM | GI50 [2, 6]: 0.0724 µM | GI50 ([2]; BT-483, cell line BT483): 0.0724 µM | GI50 [2, 7]: 0.0617 µM | GI50 ([2]; CAMA-1, cell line CAMA1): 0.0617 µM | GI50 [2, 8]: 0.0355 µM | GI50 ([2]; HCC38, cell line HCC38): 0.0355 µM | GI50 [2, 9]: 0.0776 µM | GI50 ([2]; HCC70, cell line HCC70): 0.0776 µM | GI50 [2, 10]: 0.0832 µM | GI50 ([2]; HCC1143, cell line HCC1143): 0.0832 µM | GI50 [2, 11]: 0.174 µM | GI50 ([2]; HCC1187, cell line HCC1187): 0.174 µM | GI50 [2, 12]: 0.0589 µM | GI50 ([2]; HCC1419, cell line HCC1419): 0.0589 µM | GI50 [2, 13]: 0.135 µM | GI50 ([2]; HCC1428, cell line HCC1428): 0.135 µM | GI50 [2, 14]: 0.162 µM | GI50 ([2]; HCC1500, cell line HCC1500): 0.162 µM | GI50 [2, 15]: 0.151 µM | GI50 ([2]; HCC1806, cell line HCC1806): 0.151 µM | GI50 [2, 16]: 0.191 µM | GI50 ([2]; HCC1937, cell line HCC1937): 0.191 µM | GI50 [2, 17]: 0.372 µM | GI50 ([2]; HCC1954, cell line HCC1954): 0.372 µM | GI50 [2, 18]: 0.0692 µM | GI50 [2, 19]: 0.295 µM | GI50 [2, 20]: 0.0794 µM | GI50 ([2]; MCF7, cell line MCF7): 0.0794 µM | GI50 [2, 21]: 0.0661 µM | GI50 [2, 22]: 0.389 µM | GI50 [2, 23]: 0.0501 µM | GI50 ([2]; MDA-MB-361, cell line MDAMB361): 0.0501 µM | GI50 [2, 24]: 0.0398 µM | GI50 ([2]; MDA-MB-415, cell line MDAMB415): 0.0398 µM | GI50 [2, 25]: 0.251 µM | GI50 ([2]; MDA-MB-436, cell line MDAMB436): 0.251 µM | GI50 [2, 26]: 0.049 µM | GI50 ([2]; MDA-MB-453, cell line MDAMB453): 0.049 µM | GI50 [2, 27]: 0.234 µM | GI50 ([2]; MDA-MB-468, cell line MDAMB468): 0.234 µM | GI50 ([2]; SK-BR-3, SKBR3 cell line, censored GI50 values): 0.055 µM | GI50 ([2]; SK-BR-3, cell line SKBR3): 0.055 µM | GI50 ([2]; SUM52PE, SUM52PE cell line, censored GI50 values): 0.17 µM | GI50 ([2]; SUM52PE, cell line SUM52PE): 0.17 µM | GI50 [2, 28]: 0.316 µM | GI50 ([2]; SUM149PT, cell line SUM149PT): 0.316 µM | GI50 ([2]; SUM185PE, SUM185PE cell line, censored GI50 values): 0.0776 µM | GI50 ([2]; SUM185PE, cell line SUM185PE): 0.0776 µM | GI50 [2, 29]: 0.251 µM | GI50 [2, 30]: 0.132 µM | GI50 ([2]; SUM-159-PT, cell line SUM159PT): 0.132 µM | GI50 ([2]; T47D, T47D cell line, censored GI50 values): 0.151 µM | GI50 ([2]; T47D, cell line T47D): 0.151 µM | GI50 ([2]; UACC-812, UACC812 cell line, censored GI50 values): 0.129 µM | GI50 ([2]; UACC-812, cell line UACC812): 0.129 µM | GI50 ([2]; ZR-75-1, ZR751 cell line, censored GI50 values): 0.195 µM | GI50 ([2]; ZR-75-1, cell line ZR751): 0.195 µM | GI50 ([2]; ZR-75B, ZR75B cell line, censored GI50 values): 0.0832 µM | GI50 ([2]; ZR-75B, cell line ZR75B): 0.0832 µM | GI50 ([2]; cell line 600MPE): 0.186 µM | GI50 ([2]; cell line HCC2185): 0.0692 µM | GI50 ([2]; cell line HCC3153): 0.295 µM | GI50 ([2]; cell line MDAMB134V): 0.0661 µM | GI50 ([2]; cell line MDAMB175V): 0.389 µM | GI50 ([2]; cell line SUM1315MO): 0.251 µM
